Assay results from publication PMC2694132 (Cancer research, 2009).
Numbering of substitutions follows the chain as printed. “Also recorded” adds a separate entry of the source.

What was measured:
UGT2B15 = biological target: T1, UGT2B15 (Homo sapiens, UniProt P54855); test: SAHA glucuronidation screen, UGT2B15-overexpressing cell homogenate; assay type: in vitro ADME; details: 400 μg UGT-overexpressing cell homogenate, 1-h incubation
T1 sequence (P54855 24-530): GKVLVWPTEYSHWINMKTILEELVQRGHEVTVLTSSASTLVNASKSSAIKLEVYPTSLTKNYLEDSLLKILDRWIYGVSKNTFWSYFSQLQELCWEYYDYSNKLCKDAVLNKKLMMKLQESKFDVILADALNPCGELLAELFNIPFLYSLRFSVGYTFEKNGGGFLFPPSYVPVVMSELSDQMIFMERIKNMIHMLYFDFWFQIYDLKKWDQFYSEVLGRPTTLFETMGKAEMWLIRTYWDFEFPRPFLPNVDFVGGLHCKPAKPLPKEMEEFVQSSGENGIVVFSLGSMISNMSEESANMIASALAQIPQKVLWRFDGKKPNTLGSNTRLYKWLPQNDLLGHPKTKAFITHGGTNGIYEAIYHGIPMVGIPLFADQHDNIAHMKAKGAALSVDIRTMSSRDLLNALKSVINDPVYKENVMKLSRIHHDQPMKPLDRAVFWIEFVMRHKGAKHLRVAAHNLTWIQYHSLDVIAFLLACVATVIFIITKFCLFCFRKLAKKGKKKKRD

UGT1A7 = biological target: T2, UGT1A7 (Homo sapiens, UniProt Q9HAW7); test: SAHA glucuronidation, wild-type UGT1A7; assay type: in vitro ADME
T2 sequence (Q9HAW7 26-530): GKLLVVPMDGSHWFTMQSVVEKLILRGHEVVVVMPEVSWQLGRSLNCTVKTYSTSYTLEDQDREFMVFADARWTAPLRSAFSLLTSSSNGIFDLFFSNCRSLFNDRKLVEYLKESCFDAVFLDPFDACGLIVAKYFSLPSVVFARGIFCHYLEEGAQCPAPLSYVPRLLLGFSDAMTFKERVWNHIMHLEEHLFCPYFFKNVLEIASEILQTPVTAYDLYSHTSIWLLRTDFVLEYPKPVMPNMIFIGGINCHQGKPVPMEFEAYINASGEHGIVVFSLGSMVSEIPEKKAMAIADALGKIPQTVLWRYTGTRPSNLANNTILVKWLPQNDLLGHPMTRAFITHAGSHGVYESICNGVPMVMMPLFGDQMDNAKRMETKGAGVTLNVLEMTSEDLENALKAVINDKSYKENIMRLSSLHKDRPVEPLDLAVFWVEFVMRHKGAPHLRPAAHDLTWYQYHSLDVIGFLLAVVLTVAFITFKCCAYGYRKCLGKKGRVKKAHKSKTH

[1] = SAHA glucuronidation in human colon homogenate; assay type: in vitro ADME; details: 200 μg protein
UGT2B11 = biological target: T3, UGT2B11 (Homo sapiens, UniProt O75310); test: SAHA glucuronidation screen, UGT2B11-overexpressing cell homogenate; assay type: in vitro ADME; details: 400 μg UGT-overexpressing cell homogenate, 1-h incubation
T3 sequence (O75310 22-529): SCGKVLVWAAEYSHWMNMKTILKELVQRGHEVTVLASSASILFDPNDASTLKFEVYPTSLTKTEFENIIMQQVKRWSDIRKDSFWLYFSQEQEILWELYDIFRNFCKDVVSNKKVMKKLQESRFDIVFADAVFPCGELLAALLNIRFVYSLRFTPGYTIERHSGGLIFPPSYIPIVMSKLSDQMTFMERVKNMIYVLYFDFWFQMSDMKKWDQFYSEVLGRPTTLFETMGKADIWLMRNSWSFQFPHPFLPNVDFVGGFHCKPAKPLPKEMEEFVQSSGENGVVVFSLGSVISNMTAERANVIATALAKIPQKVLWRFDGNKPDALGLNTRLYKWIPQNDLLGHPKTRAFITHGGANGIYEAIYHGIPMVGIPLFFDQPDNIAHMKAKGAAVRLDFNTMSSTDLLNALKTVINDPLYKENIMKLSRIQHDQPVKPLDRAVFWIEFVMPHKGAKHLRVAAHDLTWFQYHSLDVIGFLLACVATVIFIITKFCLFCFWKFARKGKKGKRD

[2] = biological target: T4, UGT1A8*3 (UGT1A8p.Cys277Tyr) (Homo sapiens, UniProt Q9HAW9, C277Y); test: Glucuronidation, UGT1A8*3 variant cell homogenate; assay type: in vitro ADME; details: using up to 8 mmol/L SAHA
T4 sequence (Q9HAW9 26-530 C277Y): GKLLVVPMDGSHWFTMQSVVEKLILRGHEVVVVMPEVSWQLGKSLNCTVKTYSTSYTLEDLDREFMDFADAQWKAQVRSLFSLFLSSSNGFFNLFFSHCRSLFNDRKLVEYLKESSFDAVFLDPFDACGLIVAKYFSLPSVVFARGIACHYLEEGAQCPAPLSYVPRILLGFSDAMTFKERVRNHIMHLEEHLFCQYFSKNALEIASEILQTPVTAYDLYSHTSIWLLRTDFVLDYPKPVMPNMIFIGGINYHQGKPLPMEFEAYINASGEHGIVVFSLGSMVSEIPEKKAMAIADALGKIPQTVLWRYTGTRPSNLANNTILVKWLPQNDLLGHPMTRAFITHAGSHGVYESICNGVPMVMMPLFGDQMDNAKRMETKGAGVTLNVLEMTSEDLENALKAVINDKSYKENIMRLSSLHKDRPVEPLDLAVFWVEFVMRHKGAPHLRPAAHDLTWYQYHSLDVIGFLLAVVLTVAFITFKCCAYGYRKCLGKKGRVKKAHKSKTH

in vitro = details: human, pH 7.5
UGT1A8 = biological target: T5, UGT1A8 (Homo sapiens, UniProt Q9HAW9); test: SAHA glucuronidation, wild-type UGT1A8; assay type: in vitro ADME
T5 sequence (Q9HAW9 26-530): T4 sequence (Q9HAW9 26-530 C277Y) with Y252C

[3] = 400 μg UGT-overexpressing cell homogenate, 1-h incubation

## O=C(CCCCCCC(=O)Nc1ccccc1)NO [SAHA, Suberoylanilide hydroxamic acid]
UGT2B15
  glucuronidation activity against SAHA (screen): No detectable glucuronidation activity
UGT1A7; [3]
  glucuronidation against SAHA (screen): high levels of glucuronidation
UGT1A7; human, pH 7.5
  Km at 1 h: 2700 ± 600 µM
[1]
  glucuronidation activity against SAHA: significant levels of glucuronidation activity
UGT2B11
  glucuronidation activity against SAHA (screen): No detectable glucuronidation activity
[2]
  glucuronidation activity against SAHA: no detectable glucuronidation activity; also recorded: inactive
In vitro; human liver microsomes from UGT2B17 (*1/*1) subjects
  Km: 1200 µM
In vitro; human liver microsomes from UGT2B17 (*2/*2) subjects
  Km: 2100 µM
200 μmol/L SAHA
  SAHA-glucuronide formation, HLM with one versus two intact UGT2B17 alleles: No difference
200 μmol/L SAHA, 20 μg HLM protein, 100 subjects
  decrease in SAHA-glucuronide formation, UGT2B17 (*2/*2) HLM versus HLM with intact UGT2B17: 45%
13 HLM per genotype, 65 to 8,000 μmol/L SAHA
  increase in KM, UGT2B17 (*2/*2) HLM versus UGT2B17 (*1/*1) HLM: 75%
HLM (*1/*1) versus (*2/*2)
  change in Vmax between UGT2B17 genotype subgroups: No change
From UGT2B17-deleted versus wild-type HLM
  share of hepatic SAHA glucuronidation from UGT2B17: ~ 45%
UGT1A8; [3]
  glucuronidation against SAHA (screen): high levels of glucuronidation
UGT1A8; human, pH 7.5
  Km at 1 h: 1900 ± 100 µM
